Results published in ChEMBL document CHEMBL1156968, “2,5-Disubstituted pyridines as potent GPR119 agonists” (Bioorg Med Chem Lett, 2010).
≈ marks a conversion by molar mass, not a printed value.

How the values were obtained:
[1] = biological target: T1, Glucose-dependent insulinotropic receptor (Homo sapiens) (UniProt Q8TDV5); assay: Agonist activity at human GPR119 receptor expressed in CHO-K1 cells co-transfected with 6CRE-Luc after 5 hrs by luciferase reporter gene assay relative to N-(4-(1H-1,2,4-triazol-1-yl)phenyl)-5-nitro-6-(4-(pyridin-2-ylthio)piperidin-1-yl)pyrimidin-4-amine maximal response; format: functional, cell-based
T1 sequence (whole entry): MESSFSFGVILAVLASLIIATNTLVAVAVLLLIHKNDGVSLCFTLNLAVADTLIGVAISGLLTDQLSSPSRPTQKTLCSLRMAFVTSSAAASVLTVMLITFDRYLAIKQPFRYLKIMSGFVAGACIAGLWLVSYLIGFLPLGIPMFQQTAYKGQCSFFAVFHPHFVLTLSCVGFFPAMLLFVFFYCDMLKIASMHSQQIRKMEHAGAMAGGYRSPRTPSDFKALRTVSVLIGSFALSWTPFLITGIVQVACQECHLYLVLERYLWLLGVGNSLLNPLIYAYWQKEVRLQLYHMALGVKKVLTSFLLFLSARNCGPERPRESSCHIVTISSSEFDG

[2] = biological target: T2, Glucose-dependent insulinotropic receptor (Homo sapiens, UniProt Q8TDV5); assay: Agonist activity at human GPR119 receptor expressed in CHO-K1 cells co-transfected with 6CRE-Luc after 5 hrs by luciferase reporter gene assay; format: functional, cell-based
T2 sequence (Q8TDV5 whole entry): T1 sequence (whole entry)

[3] = Membrane permeability by PAMPA method; format: ADME; conditions: read-out: permeability
[4] = system: Mus musculus; assay: Clearance in mouse at 3 mg/kg, iv; format: ADME, organism-based; set-up: dose 3 mg/kg, route intravenous; conditions: in vivo
[5] = Cmax in mouse at 3 mg/kg, iv; format: ADME, organism-based; set-up: dose 3 mg/kg, route intravenous; conditions: in vivo
[6] = Tmax in mouse at 3 mg/kg, iv; format: ADME, organism-based; set-up: dose 3 mg/kg, route intravenous; conditions: in vivo
[7] = Oral bioavailability in mouse at 30 mg/kg; format: ADME, organism-based; conditions: in vivo
[8] = Tmax in mouse at 30 mg/kg, po; format: ADME, organism-based; set-up: dose 30 mg/kg, route oral; conditions: in vivo
[9] = AUC (0 to 24) in mouse at 30 mg/kg, po; format: ADME, organism-based; set-up: time < 24 hr, dose 30 mg/kg, route oral; conditions: plasma
[10] = Half life in mouse at 30 mg/kg, po; format: ADME, organism-based; set-up: dose 30 mg/kg, route oral; conditions: in vivo
[11] = AUC (0 to 24) in mouse at 3 mg/kg, iv; format: ADME, organism-based; set-up: time < 24 hr, dose 3 mg/kg, route intravenous; conditions: plasma
[12] = Cmax in mouse at 30 mg/kg, po; format: ADME, organism-based; set-up: dose 30 mg/kg, route oral; conditions: in vivo
[13] = Half life in mouse at 3 mg/kg, iv; format: ADME, organism-based; set-up: dose 3 mg/kg, route intravenous; conditions: in vivo
[14] = Solubility in fasted simulated intestinal fluid at pH 6.5; format: physicochemical
[15] = Volume of distribution at steady state in mouse at 3 mg/kg, iv; format: ADME, organism-based; set-up: dose 3 mg/kg, route intravenous; conditions: in vivo, read-out: Vdss
[16] = biological target: T2, Glucose-dependent insulinotropic receptor; assay: Agonist activity at human GPR119 receptor by cAMP mobilization assay; format: functional

Structure (SMILES)	Activity [1] [%]	EC50 [2] [nM]	further results
CC(C)NC(=O)CN1CCN(c2ccc(OCC3CCN(C(=O)OC(C)C)CC3)cn2)CC1	11	> 10000	–
CCCS(=O)(=O)N1CCN(c2ccc(OCC3CCN(C(=O)NC(C)(C)C)CC3)cn2)CC1	75	800	–
CCS(=O)(=O)N1CCN(c2ccc(OCCC3CCN(C(=O)OC(C)C)CC3)cn2)CC1	69	1200	–
CCCS(=O)(=O)N1CCN(c2ccc(OCC3CCN(C(=O)NC(C)C)CC3)cn2)CC1	45	1000	–
CCS(=O)(=O)N1CCN(c2ccc(OC3CCN(C(=O)OC(C)C)CC3)cn2)CC1	93	2100	–
CCCS(=O)(=O)N1CCN(c2ccc(OCC3CCN(C(=O)C(F)F)CC3)cn2)CC1	97	2100	–
CC(C)OC(=O)N1CCC(COc2ccc(N3CCN(S(=O)(=O)N4CCCCC4)CC3)nc2)CC1	118	1000	–
CCN(CC)S(=O)(=O)N1CCN(c2ccc(OCC3CCN(C(=O)OC(C)C)CC3)cn2)CC1	125	1200	–
CCCS(=O)(=O)N1CCN(c2ccc(OCC3CCN(C(=O)CC(C)(C)C)CC3)cn2)CC1	175	2800	–
CC(C)OC(=O)N1CCC(COc2ccc(N3CCN(S(=O)(=O)c4cccs4)CC3)nc2)CC1	69	1800	–
COCCN1CCN(c2ccc(OCC3CCN(C(=O)OC(C)C)CC3)cn2)CC1	28	2600	–
CCCS(=O)(=O)N1CCN(c2ccc(OCC3CCN(C(=O)OC(C)C)CC3)cn2)CC1	153	300	Papp [3]: 47 ×10⁻⁶ cm/s; clearance [4]: 15.7 mL/min/kg; Cmax [5]: 3080 ng/mL; Tmax [6]: 45 min; bioavailability [7]: 8%; Tmax [8]: 15 min; AUC at 24 h [9]: 2350 ng·h/mL; half-life [10]: 24 min; AUC at 24 h [11]: 3130 ng·h/mL; Cmax [12]: 3000 ng/mL; half-life [13]: 37.2 min; solubility [14]: 3.41 µg/mL (≈ 7.28 µM); Vd [15]: 0.76 L/kg
COCCS(=O)(=O)N1CCN(c2ccc(OCC3CCN(C(=O)OC(C)C)CC3)cn2)CC1	178	300	–
CC(C)OC(=O)N1CCC(COc2ccc(N3CCN(S(=O)(=O)c4cccnc4)CC3)nc2)CC1	100	2000	–
CC(C)OC(=O)N1CCC(COc2ccc(N3CCN(S(=O)(=O)C(C)C)CC3)nc2)CC1	171	300	–
CC(=O)N1CCN(c2ccc(OCC3CCN(C(=O)OC(C)C)CC3)cn2)CC1	< 10	> 10000	–
CC(C)OC(=O)N1CCC(COc2ccc(N3CCN(S(=O)(=O)CC4CCCCC4)CC3)nc2)CC1	136	90	–
CCCCS(=O)(=O)N1CCN(c2ccc(OCC3CCN(C(=O)OC(C)C)CC3)cn2)CC1	164	100	–
CCCS(=O)(=O)N1CCN(c2ccc(OCC3CCN(C(=O)N4CCOCC4)CC3)cn2)CC1	41	> 10000	–
CCCS(=O)(=O)N1CCN(c2ccc(OCC3CCN(C(=O)Nc4ccc(C(C)C)cc4)CC3)cn2)CC1	67	900	–
CCCS(=O)(=O)N1CCN(c2ccc(OCC3CCN(C(=O)NC4CCCCC4)CC3)cn2)CC1	16	> 10000	–
CC(C)OC(=O)N1CCC(COc2ccc(N3CCN(C(=O)c4ccco4)CC3)nc2)CC1	112	1900	–
CCS(=O)(=O)N1CCN(c2ccc(OCC3CCN(C(=O)OC(C)C)CC3)cn2)CC1	167	1300	–
CCCS(=O)(=O)N1CCN(c2ccc(OCCC3CCN(C(=O)OC(C)C)CC3)cn2)CC1	95	700	–
CC(C)OC(=O)N1CCC(COc2ccc(N3CCN(C(=O)N(C)C)CC3)nc2)CC1	23	> 10000	–
CCCS(=O)(=O)N1CCN(c2ccc(OCC3CCN(C(=O)CC(C)C)CC3)cn2)CC1	186	1600	–
CC(C)OC(=O)N1CCC(COc2ccc(N3CCN(S(=O)(=O)C4CCCCC4)CC3)nc2)CC1	165	200	–
CCCS(=O)(=O)N1CCN(c2ccc(OCC3CCN(C(=O)c4ccco4)CC3)cn2)CC1	112	2000	–
O=[N+]([O-])c1c(Nc2ccc(-n3cncn3)cc2)ncnc1N1CCC(Sc2ccccn2)CC1	–	–	EC50 [16]: 130 nM
